IC50, selectivity ratio and CC50 data for 19 compounds are collected here from ChEMBL document CHEMBL4257560, “Synthesis and antiviral activity of camphor-based 1,3-thiazolidin-4-one and thiazole derivatives as Orthopoxvirus-reproduction inhibitors” (Medchemcomm, 2018).

As a reminder, the IC50 is the concentration that inhibits the measured activity by half.

The test system of one series is Vaccinia virus. The series can be described thus: Antiviral activity against Vaccinia virus Copenhagen infected in African green monkey Vero cells assessed as inhibition of viral reproduction after 4 days by neural red dye-based assay. The series is classed as functional, organism-based, Orthopoxvirus vaccinia.
A short description of series [1]: Selectivity index, ratio of TC50 for African green monkey Vero cells to IC50 for Vaccinia virus Copenhagen. To be noted: read-out: Selectivity Index. Format: toxicity.
The nature of series [2]: Cytotoxicity against African green monkey Vero cells after 4 days by neural red dye-based assay. Format: cell-based. The following applies: chlorocebus sabaeus, read-out: TC50.
[3] abbreviates: Orthopoxvirus vaccinia, Copenhagen, Vero, 96 h, read-out: IC50.

As to `CC1(C)[C@H]2CC[C@]1(C)[C@H](OC(=O)CCN1CCOCC1)C2`, the IC50 in the series on Vaccinia virus (setting [3]) came to 3.5 µM.

Regarding `CCCCN1C(=O)CS/C1=N\N=C1/C[C@H]2CC[C@]1(C)C2(C)C`, in the series with Vaccinia virus (setting [3]), the IC50 is 3.2 µM. For the same compound, the selectivity ratio in series [1] came out at 8. Further, in series [2], the CC50 at 96 h was 25.2 µM.

With `CC1(C)[C@@H]2CC[C@@]1(C)/C(=N/N=C1/NC(=S)CS1)C2`, the IC50 in the series with Vaccinia virus (setting [3]) is 3.3 µM. Moreover, in series [1], the selectivity ratio was determined as 5. In series [2], the CC50 at 96 h was 17.5 µM.

In the case of `C=CCN1C(=O)CS/C1=N\N=C1/C[C@H]2CC[C@]1(C)C2(C)C`, the 50% inhibitory concentration (IC50) with Vaccinia virus (setting [3]) is 14.4 µM. For the same compound, in series [1], the selectivity ratio was 11. Besides, the CC50 at 96 h in series [2] amounted to 164 µM.

As for `CC1(C)[C@@H]2CC[C@@]1(C)/C(=N/Nc1nc(-c3ccc([N+](=O)[O-])cc3)cs1)C2`, the IC50 result in the series on Vaccinia virus (vero) was “Not Active”. For the same compound, in series [2], the CC50 at 96 h came to 261 µM.

Take `COc1ccc(-c2csc(N/N=C3\C[C@H]4CC[C@]3(C)C4(C)C)n2)cc1`: in the series with Vaccinia virus (setting [3]), the half-inhibitory concentration (IC50) was found to be 3.7 µM. Besides, in series [1], the selectivity ratio was 26. Further, the CC50 at 96 h in series [2] worked out at 93.6 µM.

In the case of `CC1(C)[C@@H]2CC[C@@]1(C)/C(=N/Nc1nc(-c3ccc(Cl)cc3)cs1)C2`, the 50% inhibitory concentration (IC50) in the series on Vaccinia virus (setting [3]) came to 2.7 µM. In series [1], the selectivity ratio was determined as 24. Moreover, in series [2], the CC50 at 96 h was determined as 64.1 µM.

As for `CC1(C)[C@@H]2CC[C@@]1(C)/C(=N/Nc1nc(-c3ccc(F)cc3)cs1)C2`, in the series on Vaccinia virus (vero), the IC50 result is reported as “Not Active”. Moreover, the CC50 at 96 h in series [2] worked out at 176 µM.

As for `CC1CCN(CCC(=O)N[C@@H]2C[C@H]3CC[C@]2(C)C3(C)C)CC1`, the IC50 in the series on Vaccinia virus (setting [3]) was 2.5 µM.

Regarding `CC1(C)[C@@H]2CC[C@@]1(C)/C(=N/N=C1/NC(=O)/C(=C/c3ccccc3)S1)C2`, the 50% inhibitory concentration (IC50) with Vaccinia virus (setting [3]) was 5.2 µM. In addition, the selectivity ratio in series [1] was 3. Further, the CC50 at 96 h in series [2] turned out to be 14.5 µM.

As for `CC(C)CCN1C(=O)CS/C1=N\N=C1/C[C@H]2CC[C@]1(C)C2(C)C`, the IC50 result in the series on Vaccinia virus (vero) was “Not Active”. In series [2], the CC50 at 96 h was found to be 37.5 µM.

Take `CC1(C)[C@@H]2CC[C@@]1(C)/C(=N/NC(N)=S)C2`: the half-inhibitory concentration (IC50) in the series with Vaccinia virus (setting [3]) was determined as 17.7 µM. Moreover, the selectivity ratio in series [1] was found to be 13. Also, the CC50 at 96 h in series [2] turned out to be 225 µM.

As to `CC1(C)[C@@H]2CC[C@@]1(C)/C(=N/N=C1/NC(=O)CS1)C2`, the half-inhibitory concentration (IC50) result with Vaccinia virus (vero) is given as “Not Active”. For the same compound, the CC50 at 96 h in series [2] was 305 µM.

For `CC1(C)[C@@H]2CC[C@@]1(C)/C(=N/N=C1\SCC(=O)N1Cc1ccccc1)C2`, the concentration for half-maximal inhibition (IC50) entry in the series with Vaccinia virus (vero) is “Not Active”. Moreover, the CC50 at 96 h in series [2] was determined as 288 µM.

Turning to `Cc1ccc(-c2csc(N/N=C3\C[C@H]4CC[C@]3(C)C4(C)C)n2)cc1`, the concentration for half-maximal inhibition (IC50) in the series with Vaccinia virus (setting [3]) is 4.5 µM. In addition, in series [1], the selectivity ratio amounted to 3. In addition, in series [2], the CC50 at 96 h came out at 13.7 µM.

For `CC1(C)[C@@H]2CC[C@@]1(C)/C(=N/Nc1nc(-c3ccccc3)cs1)C2`, in the series on Vaccinia virus (setting [3]), the IC50 was 3.2 µM. Besides, the CC50 at 96 h in series [2] is 13.9 µM.

With `CC1(C)[C@@H]2CC[C@@]1(C)/C(=N/Nc1nc(-c3ccc(Br)cc3)cs1)C2`, the IC50 in the series with Vaccinia virus (setting [3]) came to 2.4 µM. Moreover, the selectivity ratio in series [1] is 32. In addition, in series [2], the CC50 at 96 h is 77.1 µM.

As for `Cc1ccc(/C=C2\S/C(=N\N=C3/C[C@H]4CC[C@]3(C)C4(C)C)NC2=O)cc1` (stereo in doubt), the half-maximal inhibitory concentration (IC50) in the series on Vaccinia virus (setting [3]) came to 9.5 µM. The selectivity ratio in series [1] was determined as 13. Moreover, the CC50 at 96 h in series [2] stood at 120 µM.

Regarding `Nc1ccn(C[C@@H](CO)OCP(=O)(O)O)c(=O)n1` [CIDOFOVIR], in the series with Vaccinia virus (setting [3]), the concentration for half-maximal inhibition (IC50) turned out to be 40 µM. The selectivity ratio in series [1] is 12. The CC50 at 96 h in series [2] stood at 475 µM.
